Measured values published in paper PMC5706701, “Development of a homogenous high-throughput assay for inositol hexakisphosphate kinase 1 activity” (PLoS ONE, 2017).
Counter-ions that a name gives are not always drawn. Like-named read-outs stand apart in the source and are kept apart here.

Target: T1, Human IP6K1 (Homo sapiens, UniProt Q92551)
T1 construct: GST (N, cleaved yes); made in house; host or cells: C43 E. coli, pGEX-6P-2
Assay: IP6K1 high-throughput screen of the Sigma LOPAC (ADP-Glo Max, single point);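 note: final compound concentration 10µM in 5% DMSO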
Type: biochemical

[1] = LOPAC single-point screen, ADP-Glo Max luminescence raw signal per well
[2] = LOPAC single-point screen, Z-score from plate average and StDev
[3] = LOPAC single-point screen, Z-score relative to plate average and StDev
[4] = Sigma LOPAC single-point screen, ADP-Glo Max raw signal per well
[5] = Sigma LOPAC single-point screen, Z-score from plate average and StDev
[6] = LOPAC single-point screen, ADP-Glo Max raw signal per well
[7] = LOPAC single-point screen, Z-score against plate average and StDev
[8] = LOPAC single-point screen, Z-score from raw signal with plate average and StDev

T1 sequence (Q92551 whole entry): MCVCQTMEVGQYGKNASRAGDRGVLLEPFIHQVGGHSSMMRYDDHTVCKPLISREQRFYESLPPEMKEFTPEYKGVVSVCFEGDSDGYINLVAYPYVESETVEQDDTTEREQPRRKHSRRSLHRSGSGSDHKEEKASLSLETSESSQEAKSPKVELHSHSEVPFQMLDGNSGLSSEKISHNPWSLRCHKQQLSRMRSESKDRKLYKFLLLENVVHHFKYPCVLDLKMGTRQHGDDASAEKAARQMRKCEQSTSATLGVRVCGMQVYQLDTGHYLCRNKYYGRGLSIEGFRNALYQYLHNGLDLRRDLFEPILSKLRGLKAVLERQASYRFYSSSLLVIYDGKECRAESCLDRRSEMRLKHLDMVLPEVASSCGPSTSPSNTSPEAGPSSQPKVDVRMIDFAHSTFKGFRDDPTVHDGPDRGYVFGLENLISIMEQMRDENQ

Compound: CCN(CC)CCNC(=O)c1ccc(NC(C)=O)cc1.Cl [N-Acetylprocainamide hydrochloride]
- Raw Signal [1]: 70393
- Z-score [2]: 2.198

Compound: CC(=O)NCCc1c[nH]c2ccccc12 [N-Acetyltryptamine]
- Raw Signal [1]: 53398
- Z-score [3]: -0.7952

Compound: CC(=O)NBr [N-Bromoacetamide]
- Raw Signal [4]: 65186
- Z-score [5]: 1.281

Compound: CCN1C(=O)C=CC1=O [N-Ethylmaleimide]
- Raw Signal [6]: 55064
- Z-score [7]: -0.02093

Compound: CN1C[C@H](O)[C@@H](O)[C@H](O)[C@H]1CO [N-Methyl-1-deoxynojirimycin]
- Raw Signal [6]: 53171
- Z-score [8]: -0.2054

Compound: CN[C@H](CC(=O)O)C(=O)O [N-Methyl-D-aspartic acid]
- Raw Signal [4]: 57133
- Z-score [5]: 0.4603

Compound: CNC(=O)c1cc2c(cn1)[nH]c1ccccc12 [N-Methyl-beta-carboline-3-carboxamide]
- Raw Signal [4]: 57600
- Z-score [5]: 0.4941

Compound: CNCCc1ccc(O)c(O)c1.Cl [N-Methyldopamine hydrochloride]
- Raw Signal [1]: 45936
- Z-score [3]: -1.875

Compound: CCCCCCCC/C=C\CCCCCCCC(=O)NCCc1ccc(O)c(O)c1 [N-Oleoyldopamine]
- Raw Signal [1]: 53486
- Z-score [3]: -0.493

Compound: CCCCCCCC/C=C\CCCCCCCC(=O)NCCO [N-Oleoylethanolamine]
- Raw Signal [6]: 53081
- Z-score [8]: -0.2205

Compound: O=C(O)c1ccccc1Nc1ccccc1 [N-Phenylanthranilic acid]
- Raw Signal [4]: 63268
- Z-score [5]: 0.9431

Compound: O=C(O)CCC(=O)N1CCC[C@H]1C(=O)O [N-Succinyl-L-proline]
- Raw Signal [6]: 55499
- Z-score [8]: -0.102

Compound: CCCCC/C=C\C/C=C\C/C=C\C/C=C\CCCC(=O)NCC(=O)O [N-arachidonylglycine]
- Raw Signal [6]: 55672
- Z-score [8]: -0.3947

Compound: NC(=O)C1=CN([C@@H]2O[C@H](COP(=O)([O-])OP(=O)([O-])OC[C@H]3O[C@@H](n4cnc5c(N)ncnc54)[C@H](OP(=O)([O-])[O-])[C@@H]3O)[C@@H](O)[C@H]2O)C=CC1.[Na+].[Na+].[Na+].[Na+] [NADPH tetrasodium]
- Raw Signal [4]: 57869
- Z-score [5]: 0.584

Compound: Br.COc1ccccc1N1CCN(CCCCN2C(=O)c3ccccc3C2=O)CC1 [NAN-190 hydrobromide]
- Raw Signal [4]: 61226
- Z-score [5]: 1.148

Compound: CCCN(CC1CC1)c1nc(C)nc(Nc2c(Cl)cc(Cl)cc2Cl)c1Cl [NBI 27914]
- Raw Signal [1]: 52610
- Z-score [3]: -0.5193

Compound: NS(=O)(=O)c1cccc2c1c([N+](=O)[O-])cc1nc([O-])c([O-])nc12.[Na+].[Na+] [NBQX disodium]
- Raw Signal [6]: 52080
- Z-score [8]: -0.3887

Compound: O=C([O-])/C=C/C(O)c1ccc(Cl)cc1.[Na+] (stereo not drawn) [NCS-356]
- Raw Signal [4]: 58969
- Z-score [5]: 0.7688

Compound: O=C(O)/C=C1\CCCc2ccccc2C1O (stereo not drawn) [NCS-382]
- Raw Signal [1]: 49943
- Z-score [3]: -0.7478

Compound: O=C(Nc1cc(C(=O)Nc2ccc(S(=O)(=O)[O-])cc2S(=O)(=O)[O-])cc(C(=O)Nc2ccc(S(=O)(=O)[O-])cc2S(=O)(=O)[O-])c1)Nc1cc(C(=O)Nc2ccc(S(=O)(=O)[O-])cc2S(=O)(=O)[O-])cc(C(=O)Nc2ccc(S(=O)(=O)[O-])cc2S(=O)(=O)[O-])c1.[Na+].[Na+].[Na+].[Na+].[Na+].[Na+].[Na+].[Na+] [NF449 octasodium salt]
- Raw Signal [1]: 9787
- Z-score [3]: -7.495

Compound: O=C(Nc1cccc(C(=O)Nc2ccc(S(=O)(=O)O)c3cc(S(=O)(=O)O)cc(S(=O)(=O)O)c23)c1)Nc1cccc(C(=O)Nc2ccc(S(=O)(=O)O)c3cc(S(=O)(=O)O)cc(S(=O)(=O)O)c23)c1 [NF 023]
- Raw Signal [1]: 39481
- Z-score [3]: -2.506

Compound: CC(=O)O.NC(=NCCC[C@H](N)C(=O)O)NO [NG-Hydroxy-L-arginine acetate]
- Raw Signal [6]: 53960
- Z-score [8]: -0.2451

Compound: [H]/N=C(/NC)NCCC[C@H](N)C(=O)O [NG-Monomethyl-L-arginine acetate]
- Raw Signal [1]: 51513
- Z-score [3]: -0.484

Compound: N=C(NCCC[C@H](N)C(=O)O)N[N+](=O)[O-] [NG-Nitro-L-arginine]
- Raw Signal [4]: 57372
- Z-score [5]: 0.5005

Compound: Cl.O=C(O)C1=CCCN(CCON=C(c2ccccc2)c2ccccc2)C1 [NO-711 hydrochloride]
- Raw Signal [4]: 58704
- Z-score [5]: 0.7243

Compound: O=c1onc2n1-c1cc(Br)ccc1OC2 [NS 2028]
- Raw Signal [6]: 54790
- Z-score [7]: 0.06662

Compound: O=c1[nH]c2cc(C(F)(F)F)ccc2n1-c1cc(C(F)(F)F)ccc1O [NS-1619]
- Raw Signal [1]: 51434
- Z-score [3]: -0.4973

Compound: O=C1C(SCCO)=C(SCCO)C(=O)c2ccccc21 [NSC 95397]
- Raw Signal [6]: 55516
- Z-score [7]: 0.07087

Compound: CN(C)C(N)=NCCC[C@H](N)C(=O)O.Cl [N^G,N^G-Dimethylarginine hydrochloride]
- Raw Signal [6]: 52909
- Z-score [8]: -0.4586

Compound: COc1ccccc1N1CCN(CC(O)COc2cccc3ccccc23)CC1.Cl.Cl (stereo not drawn) [Naftopidil dihydrochloride]
- Raw Signal [4]: 57488
- Z-score [5]: 0.52

Compound: Oc1ccc2c3c1O[C@H]1[C@@H](O)CC[C@@]4(O)[C@@H](C2)N(CC2CCC2)CC[C@]314 [Nalbuphine hydrochloride]
- Raw Signal: 53889
- Z-score: -0.08477

Compound: CCn1cc(C(=O)[O-])c(=O)c2ccc(C)nc21.[Na+] [Nalidixic acid sodium]
- Raw Signal [1]: 49665
- Z-score [3]: -0.7945

Compound: C=CCN1CC[C@]23c4c5ccc(O)c4O[C@@H]2/C(=N/N=C2\CC[C@@]4(O)C6Cc7ccc(O)c8c7[C@@]4(CCN6CC=C)[C@@H]2O8)CC[C@@]3(O)C1C5.Cl.Cl [Naloxonazine dihydrochloride]
- Raw Signal [1]: 51290
- Z-score [3]: -0.5215

Compound: C=CCN1CC[C@]23c4c5ccc(O)c4O[C@H]2/C(=N/NC(=O)c2ccccc2)CC[C@@]3(O)[C@H]1C5 [Naloxone benzoylhydrazone]
- Raw Signal [4]: 57821
- Z-score [5]: 0.5759

Compound: C=CCN1CC[C@]23c4c5ccc(O)c4O[C@H]2C(=O)CC[C@@]3(O)[C@H]1C5 [Naloxone hydrochloride]
- Raw Signal [6]: 55041
- Z-score [7]: 0.1088

Compound: O=C1CC[C@@]2(O)[C@H]3Cc4ccc(O)c5c4[C@@]2(CCN3CC2CC2)[C@H]1O5 [Naltrexone hydrochloride]
- Raw Signal [6]: 52231
- Z-score [8]: -0.3634

Compound: Oc1ccc2c3c1O[C@H]1c4oc5ccccc5c4C[C@@]4(O)[C@@H](C2)N(CC2CC2)CC[C@]314 [Naltriben methanesulfonate]
- Raw Signal [6]: 55337
- Z-score [7]: 0.1585

Compound: Oc1ccc2c3c1O[C@H]1c4[nH]c5ccccc5c4C[C@@]4(O)[C@@H](C2)N(CC2CC2)CC[C@]314 [Naltrindole hydrochloride]
- Raw Signal [6]: 53741
- Z-score [8]: -0.1096

Compound: c1ccc2c(CC3=NCCN3)cccc2c1 [Naphazoline hydrochloride]
- Raw Signal [6]: 52798
- Z-score [8]: -0.2681

Compound: CN(C)C(=O)Oc1cccc([N+](C)(C)C)c1 [Neostigmine bromide]
- Raw Signal [6]: 55937
- Z-score [7]: 0.2593

Compound: O=C(CCNNC(=O)c1ccncc1)NCc1ccccc1 [Nialamide]
- Raw Signal [6]: 52793
- Z-score [8]: -0.2689

Compound: COC(=O)C1=C(C)NC(C)=C(C(=O)OCCN(C)Cc2ccccc2)C1c1cccc([N+](=O)[O-])c1 (stereo not drawn) [Nicardipine hydrochloride]
- Raw Signal [1]: 66364
- Z-score [2]: 2.011
